Here are results for 9 compounds from US20260256762A1, “Aromatic Amide Derivative, And Preparation Method Therefor And Medical Use Thereof” (ZHEJIANG HISUN PHARMACEUTICAL CO., LTD., priority 2023, published 2026).

For data set [1], the target named is T1, recombinant human KIF18A enzyme (Homo sapiens, UniProt Q8NI77).
T1 construct: purchased Genscript
The data set can be described thus: Inhibition of KIF18A enzyme activity (ADP-Glo). Type of data set: biochemical. The note with it: recombinant human KIF18A protein 100 nM, ATP 60 uM, read-out: IC50 inhibiting KIF18A enzyme activity. As for the experimental part: The following method was used to determine a degree of inhibition of the compound of the present invention on the activity of recombinant human KIF18A enzyme in vitro. The method used ADP-Glo™ Kinase Assay kit (article No. V9102) of Promega Company. For detailed experimental operation, please refer to the kit instructions.
Firstly, the compound and recombinant human KIF18A protein (final concentration of 100 nM, entrusted to Genscript for expression) were added into the mesh, and incubated at room temperature for 20 minutes. Then, ATP solution (component V915A from ADP-Glo™ Kinase Assay kit, final concentration of 60 uM) was added to the reaction solution, and the mixture was incubated at room temperature for 20 minutes. Subsequently, 5 μL ADP-Glo Reagent was added to the reaction system and the obtained system was incubated at troom temperature for 50 minutes. After that, 10 μL of Kinase Detection Reagent was added to the reaction system and the obtained system was incubated at room temperature for 30 minutes. After the completion of incubation, a chemiluminescence intensity value of each mesh was measured by a microplate reader using Luminescence mode.

A further data set deals with HT-29 cells. As to the kind of experiment: Inhibition of proliferation of HT-29 cells (CellTiter-Glo). The note with it: Homo sapiens, HT-29 cells (TP53 R273H mutation), 120 hours, read-out: IC50 inhibiting the proliferation of HT-29 cells. Type of data set: cell-based. As for the experimental part:
The following method was used to determine the effect of the compound of the present invention on the proliferation of HT-29 cells. HT-29 cells (comprising TP53 R273H mutation) were purchased from the Cell Resource Center of Shanghai Institute of Life Sciences, Chinese Academy of Sciences, and cultured in a McCOY's 5A medium comprising 10% fetal bovine serum, 100 U penicillin and 100 μg/mL streptomycin. Cell viability was determined by Cell Titer-Glo® Luminescent Cell Viability Assay Kit (Promega, article No. G7573).
(§1) An experimental method was carried out according to steps provided in the kit manual, with details as follows: firstly, a test compound was dissolved in DMSO to prepare a 10 mM storage solution, and then diluted with a culture medium to prepare a test sample. A final concentration of the compound ranged from 1000 nM to 0.015 nM. Cells in a logarithmic growth phase were inoculated into a 96-mesh cell culture plate at a density of 1000 cells per mesh, and cultured overnight in a 5% CO2 incubator at 37° C., and then cultured for 120 hours after adding the test compound. After completion of cultivation, 50 uL CellTiter-Glo detection solution was added into each mesh, shook for 5 minutes, and stood for 10 minutes, and then a luminous value of each mesh of the sample was read by a microplate reader using Luminescence mode. Compared with a numerical value of a control group (0.3% DMSO), a percentage inhibition rate of the compound at each concentration point was calculated, and then an IC50 value of the compound inhibiting cell proliferation was obtained by a nonlinear regression analysis with a logarithmic-inhibition rate of the compound concentration in a GraphPad Prism 5 software, as shown in Table 2.
(Cellular ATP, detected with luciferase, serves as a proxy for viable cell number.)

The next data set relates to OVCAR-3 cells. As to the kind of experiment: Inhibition of proliferation of OVCAR-3 cells (CellTiter-Glo). The format is cell-based. The note with it: Homo sapiens, OVCAR-3 cells (TP53 R248Q mutation), 72 hours, read-out: IC50 inhibiting the proliferation of OVCAR-3 cells. Here is the method: The following method was used to determine the effect of the compound of the present invention on the proliferation of OVCAR-3 cells. OVCAR-3 cells (comprising TP53 R248Q mutation) were purchased from the Cell Resource Center of Shanghai Institute of Life Sciences, Chinese Academy of Sciences, and cultured in a RPMI 1640 medium comprising10% fetal bovine serum, 100 U penicillin and 100 μg/mL streptomycin. Cell viability was determined by Cell Titer-Glo® Luminescent Cell Viability Assay Kit (Promega, article No. G7573).
as §1, with “per mesh, cultured overnight” for “per mesh, and cultured overnight”, “cultured for 72 hours after” for “cultured for 120 hours after”, “Compared with the numerical value” for “Compared with a numerical value”, “in Table 1.” for “in Table 2.”

Data set [2] in a line: Pharmacokinetic test in mice after gavage administration. Type of data set: in vivo. Particulars: ICR mice, male, Oral (10 mg/mL), plasma. As for the experimental part:
Control Compound AMG650, Compound 9;
ICR mice, male, 27.3-30.3 g, purchased from Charles River Experimental Animal Technology Co., Ltd.
A proper amount of pharmaceutical compound was weighed, a proper amount of DMA, CrEL and 5% GS were added in turn, then the system was mixed evenly by ultrasonic vortex to prepare a 1 mg/mL drug administration preparation, wherein DMA, CrEL and 5% GS=10:10:80 (v:v:v).
ICR mice, each compound injection group (9 mice in each group) to be determined, were fasted overnight, fed was given 4 hours after gavage administration (PO, the dosage of the compound was 10 mg/kg, the dosage volume was 10 mL/kg).
About 0.1 mL blood was collected from orbits 0.25 hours, 0.5 hours, 1 hour, 2 hours, 4 hours, 8 hours, 10 hours and 24 hours […] after drug administration, and a whole blood sample was placed in an anticoagulant tube including EDTA-K2. Blood samples were collected and then placed on ice, and plasma was separated by centrifugation (centrifugation condition: 1500 g, 10 minutes). The collected plasma was stored at −40° C. to −20° C. before analysis.
LC-MS/MS was used to determine the content of compounds to be tested in plasma of mice after gavage administration.

T1 sequence (Q8NI77 whole entry): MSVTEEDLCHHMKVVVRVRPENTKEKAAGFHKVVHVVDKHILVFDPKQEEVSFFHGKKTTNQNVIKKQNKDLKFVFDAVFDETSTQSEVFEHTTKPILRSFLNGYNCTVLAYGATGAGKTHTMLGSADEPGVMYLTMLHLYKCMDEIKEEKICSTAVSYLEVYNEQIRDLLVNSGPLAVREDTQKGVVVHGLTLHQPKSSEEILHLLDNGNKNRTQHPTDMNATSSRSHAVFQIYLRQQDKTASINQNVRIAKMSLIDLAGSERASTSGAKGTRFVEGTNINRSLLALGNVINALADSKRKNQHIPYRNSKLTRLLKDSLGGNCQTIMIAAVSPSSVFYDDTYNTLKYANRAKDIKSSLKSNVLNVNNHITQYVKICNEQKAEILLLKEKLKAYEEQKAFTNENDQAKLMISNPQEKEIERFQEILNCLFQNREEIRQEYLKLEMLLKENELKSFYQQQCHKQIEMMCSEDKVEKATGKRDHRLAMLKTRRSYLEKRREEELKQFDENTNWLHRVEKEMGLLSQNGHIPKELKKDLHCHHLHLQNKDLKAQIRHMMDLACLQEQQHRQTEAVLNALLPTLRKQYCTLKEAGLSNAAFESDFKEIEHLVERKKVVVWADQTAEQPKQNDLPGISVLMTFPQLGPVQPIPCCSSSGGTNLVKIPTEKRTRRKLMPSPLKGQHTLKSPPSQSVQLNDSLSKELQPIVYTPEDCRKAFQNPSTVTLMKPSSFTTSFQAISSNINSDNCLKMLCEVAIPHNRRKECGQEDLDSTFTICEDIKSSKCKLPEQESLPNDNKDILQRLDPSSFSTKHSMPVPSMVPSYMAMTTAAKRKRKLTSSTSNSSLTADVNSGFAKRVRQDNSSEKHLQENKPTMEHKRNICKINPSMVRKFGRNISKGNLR
T1 sequence (P68363 whole entry partner): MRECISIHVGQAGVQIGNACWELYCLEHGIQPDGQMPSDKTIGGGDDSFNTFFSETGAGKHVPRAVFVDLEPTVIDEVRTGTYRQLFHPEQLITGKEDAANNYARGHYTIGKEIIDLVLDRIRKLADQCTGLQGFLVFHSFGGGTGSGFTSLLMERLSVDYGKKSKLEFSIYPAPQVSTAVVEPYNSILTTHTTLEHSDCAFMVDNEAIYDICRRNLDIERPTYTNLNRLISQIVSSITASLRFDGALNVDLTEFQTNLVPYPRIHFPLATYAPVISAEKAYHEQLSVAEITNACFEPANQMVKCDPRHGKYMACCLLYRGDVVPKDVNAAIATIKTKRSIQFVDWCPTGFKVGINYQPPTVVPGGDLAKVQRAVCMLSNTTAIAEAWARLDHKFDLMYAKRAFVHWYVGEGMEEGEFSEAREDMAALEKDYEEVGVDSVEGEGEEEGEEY
T1 sequence (P07437 whole entry partner): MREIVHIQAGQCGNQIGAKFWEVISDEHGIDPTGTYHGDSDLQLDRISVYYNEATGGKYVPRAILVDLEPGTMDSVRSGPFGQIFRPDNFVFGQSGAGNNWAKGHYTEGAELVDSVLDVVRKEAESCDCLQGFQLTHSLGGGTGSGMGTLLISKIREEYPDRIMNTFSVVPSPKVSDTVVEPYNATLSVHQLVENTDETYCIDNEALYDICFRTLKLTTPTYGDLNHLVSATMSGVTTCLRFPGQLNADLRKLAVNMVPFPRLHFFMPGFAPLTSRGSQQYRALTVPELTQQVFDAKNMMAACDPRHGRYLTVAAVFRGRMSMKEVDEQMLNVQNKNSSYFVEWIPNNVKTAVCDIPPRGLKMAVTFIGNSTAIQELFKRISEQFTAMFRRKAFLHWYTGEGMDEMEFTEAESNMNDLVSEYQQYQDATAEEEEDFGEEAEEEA

As to `CCS(=O)(=O)Nc1ccc(C(=O)Nc2ccc(OC)c(-c3ccc(F)cn3)c2)c(N2CCC3(CC2)CC3)c1` [Example 16, 4-(ethylsulfonamido)-N-(3-(5-fluoropyridine-2-yl)-4-methoxyphenyl)-2-(6-azaspiro [2.5]octan-6-yl) benzamide], the IC50 in data set [1] turned out to be 185 nM; in the data set with HT-29 cells it was 27.1 nM; with OVCAR-3 cells, 4.5 nM.
`CCS(=O)(=O)Nc1ccc(C(=O)Nc2ccc(OC)c(N3CCC(F)(F)CC3)c2)c(N2CCC3(CC2)CC3)c1` [Example 9, N-(3-(4,4-difluoropiperidin-1-yl)-4-methoxyphenyl)-4-(ethylsulfonamido)-2-(6-azaspiro[2.5]octan-6-yl) benzamide]: the IC50 in the data set on HT-29 cells turned out to be 3.3 nM; in the data set with OVCAR-3 cells, 1.5 nM. Besides, in data set [2] (mouse, 10 mg/kg, read-out: Blood concentration Cmax), the Cmax worked out at 5270 ng/mL. Besides, in data set [2] (mouse, 10 mg/kg, read-out: Curve area AUC0-∞), the AUC(0-inf) turned out to be 52200 ng·h/mL. For the same compound, the half-life (usually how long it takes for the measured level to halve) in data set [2] (mouse, 10 mg/kg, read-out: Half-life period T½ (converted)) was 5.9 h.
Take `N#Cc1ccc(NC(=O)c2ccc(NS(=O)(=O)CCO)cc2N2CCC3(CC2)CC3)cc1N1CCC(F)(F)CC1` [Example 7, N-(4-cyano-3-(4,4-difluoropiperidin-1-yl)phenyl)-4-((2-hydroxyethyl)sulfonamido)-2-(6-azaspiro[2.5]octan-6-yl)benzamide]: the IC50 in data set [1] stood at 177 nM; in the data set on HT-29 cells, 52.4 nM; with OVCAR-3 cells, 1.9 nM.
Taken in the same sequence, the figures for `CCS(=O)(=O)Nc1ccc(C(=O)Nc2ccc(C#N)c(N3CCC(F)(F)CC3)c2)c(N2CCC3(CC2)CC3)c1` [Example 8, N-(4-cyano-3-(4,4-difluoropiperidin-1-yl)phenyl)-4-(ethylsulfonamido)-2-(6-azaspiro[2.5]octan-6-yl) benzamide] were 97.8 nM, 14.5 nM and 17.4 nM.
`Cc1cc(NC(=O)c2ccc(NS(=O)(=O)CCO)cc2N2CCC3(CC2)CC3)nc(N2CCC(F)(F)CC2)n1` [AMG 650, reference compound]: in data set [2], the “Blood concentration Cmax” value worked out at 3050 ng/mL, the “Curve area AUC0-∞” value was found to be 52500 ng·h/mL and the “Half-life period T½” value was 9.64 h.
In the case of `COc1ccc(NC(=O)c2ccc(NS(=O)(=O)CCO)cc2N2CCC3(CC2)CC3)cc1N1CCC(F)(F)CC1` [Example 6, N-(3-(4,4-difluoropiperidin-1-yl)-4-methoxyphenyl)-4-((2-hydroxyethyl)sulfonamido)-2-(6-azaspiro[2.5]octan-6-yl)benzamide], the values for the IC50 with HT-29 cells and with OVCAR-3 cells were 3.2 nM and 1.5 nM, respectively.
Taken in the same sequence, the figures for `CCS(=O)(=O)Nc1ccc(C(=O)Nc2ccc(OC)c(N3CCOCC3)c2)c(N2CCC3(CC2)CC3)c1` [Example 10, 4-(ethylsulfonamido)-N-(4-methoxy-3-morpholinophenyl)-2-(6-azaspiro[2.5]octan-6-yl)benzamide] were 42.8 nM and 7.5 nM.
Consider `CCS(=O)(=O)Nc1ccc(C(=O)Nc2ccc(OC(F)(F)F)c(N3CCC(F)(F)CC3)c2)c(N2CCC3(CC2)CC3)c1` [Example 13, N-(3-(4,4-difluoropiperidin-1-yl)-4-(trifluoromethoxy)phenyl)-4-(ethylsulfonamido)-2-(6-azaspiro[2.5]octan-6-yl)benzamide], for which the IC50 in data set [1] is 137 nM.
As for `CCS(=O)(=O)Nc1ccc(C(=O)Nc2ccc(OC)c(CN3CC(F)(F)C3)c2)c(N2CCC3(CC2)CC3)c1` [Example 11, N-(3-((3,3-difluoroazetidin-1-yl)methyl)-4-methoxyphenyl)-4-(ethylsulfonamido)-2-(6-azaspiro[2.5]octan-6-yl)benzamide], the IC50 in data set [1] was found to be 145 nM; in the data set with HT-29 cells it was 3.9 nM; in the data set on OVCAR-3 cells, 14.7 nM.
